Legend:
Assay in all cases: RBC kinase panel
Assay type in all cases: biochemical
Conditions in all cases: ATP 10 μM, Data1, Data2
FRK/PTK5 = target: T1, FRK/PTK5 (Homo sapiens, UniProt P42685)
T1 construct: purchased Reaction Biology Corporation
In short: (§1)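 ATP was held at 10 μM in all reactions while the compound, at 1 μM, was profiled against 369 human kinases; each measurement was run twice.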

CDK5/p35 = target: T2, CDK5/p35 (Homo sapiens, UniProt Q00535)
T2 construct: purchased Reaction Biology Corporation
In short: as §1

GRK1 = target: T3, GRK1 (Homo sapiens, UniProt Q15835)
T3 construct: purchased Reaction Biology Corporation
In short: as §1

STK25/YSK1 = target: T4, STK25/YSK1 (Homo sapiens, UniProt O00506)
T4 construct: purchased Reaction Biology Corporation
In short: as §1

TTBK2 = target: T5, TTBK2 (Homo sapiens, UniProt Q6IQ55)
T5 construct: purchased Reaction Biology Corporation
In short: as §1

CDK1/cyclin E = target: T6, CDK1/cyclin E (Homo sapiens, UniProt P06493)
T6 construct: purchased Reaction Biology Corporation
In short: as §1

CDK2/cyclin O = target: T7, CDK2/cyclin O (Homo sapiens, UniProt P24941)
T7 construct: purchased Reaction Biology Corporation
In short: as §1

PAK6 = target: T8, PAK6 (Homo sapiens, UniProt Q9NQU5)
T8 construct: purchased Reaction Biology Corporation
In short: as §1

LYN B = target: T9, LYN B (Homo sapiens, UniProt P07948)
T9 construct: purchased Reaction Biology Corporation
In short: as §1

PKA = target: T10, PKA (Homo sapiens, UniProt P17612)
T10 construct: purchased Reaction Biology Corporation
In short: as §1

PBK/TOPK = target: T11, PBK/TOPK (Homo sapiens, UniProt Q96KB5)
T11 construct: purchased Reaction Biology Corporation
In short: as §1

PKCepsilon = target: T12, PKCepsilon (Homo sapiens, UniProt Q02156)
T12 construct: purchased Reaction Biology Corporation
In short: as §1

LATS1 = target: T13, LATS1 (Homo sapiens, UniProt O95835)
T13 construct: purchased Reaction Biology Corporation
In short: as §1

ROCK1 = target: T14, ROCK1 (Homo sapiens, UniProt Q13464)
T14 construct: purchased Reaction Biology Corporation
In short: as §1

AKT1 = target: T15, AKT1 (Homo sapiens, UniProt P31749)
T15 construct: purchased Reaction Biology Corporation
In short: as §1

SIK1 = target: T16, SIK1 (Homo sapiens, UniProt P57059)
T16 construct: purchased Reaction Biology Corporation
In short: as §1

SLK/STK2 = target: T17, SLK/STK2 (Homo sapiens, UniProt Q9H2G2)
T17 construct: purchased Reaction Biology Corporation
In short: as §1

ABL2/ARG = target: T18, ABL2/ARG (Homo sapiens, UniProt P42684)
T18 construct: purchased Reaction Biology Corporation
In short: as §1

PKCb1 = target: T19, PKCb1 (Homo sapiens, UniProt P05771)
T19 construct: purchased Reaction Biology Corporation
In short: as §1

EPHA6 = target: T20, EPHA6 (Homo sapiens, UniProt Q9UF33)
T20 construct: purchased Reaction Biology Corporation
In short: as §1

MLCK2/MYLK2 = target: T21, MLCK2/MYLK2 (Homo sapiens, UniProt Q9H1R3)
T21 construct: purchased Reaction Biology Corporation
In short: as §1

MNK1 = target: T22, MNK1 (Homo sapiens, UniProt Q9BUB5)
T22 construct: purchased Reaction Biology Corporation
In short: as §1

ERK5/MAPK7 = target: T23, ERK5/MAPK7 (Homo sapiens, UniProt Q13164)
T23 construct: purchased Reaction Biology Corporation
In short: as §1

TYK2 = target: T24, TYK2 (Homo sapiens, UniProt P29597)
T24 construct: purchased Reaction Biology Corporation
In short: as §1

c-Kit = target: T25, c-Kit (Homo sapiens, UniProt P10721)
T25 construct: purchased Reaction Biology Corporation
In short: as §1

IRAK1 = target: T26, IRAK1 (Homo sapiens, UniProt P51617)
T26 construct: purchased Reaction Biology Corporation
In short: as §1

JNK1 = target: T27, JNK1 (Homo sapiens, UniProt P45983)
T27 construct: purchased Reaction Biology Corporation
In short: as §1

MST2/STK3 = target: T28, MST2/STK3 (Homo sapiens, UniProt Q13188)
T28 construct: purchased Reaction Biology Corporation
In short: as §1

STK33 = target: T29, STK33 (Homo sapiens, UniProt Q9BYT3)
T29 construct: purchased Reaction Biology Corporation
In short: as §1

CLK3 = target: T30, CLK3 (Homo sapiens, UniProt P49761)
T30 construct: purchased Reaction Biology Corporation
In short: as §1

ARK5/NUAK1 = target: T31, ARK5/NUAK1 (Homo sapiens, UniProt O60285)
T31 construct: purchased Reaction Biology Corporation
In short: as §1

EPHA4 = target: T32, EPHA4 (Homo sapiens, UniProt P54764)
T32 construct: purchased Reaction Biology Corporation
In short: as §1

MNK2 = target: T33, MNK2 (Homo sapiens, UniProt Q9HBH9)
T33 construct: purchased Reaction Biology Corporation
In short: as §1

T29 sequence (Q9BYT3 whole entry): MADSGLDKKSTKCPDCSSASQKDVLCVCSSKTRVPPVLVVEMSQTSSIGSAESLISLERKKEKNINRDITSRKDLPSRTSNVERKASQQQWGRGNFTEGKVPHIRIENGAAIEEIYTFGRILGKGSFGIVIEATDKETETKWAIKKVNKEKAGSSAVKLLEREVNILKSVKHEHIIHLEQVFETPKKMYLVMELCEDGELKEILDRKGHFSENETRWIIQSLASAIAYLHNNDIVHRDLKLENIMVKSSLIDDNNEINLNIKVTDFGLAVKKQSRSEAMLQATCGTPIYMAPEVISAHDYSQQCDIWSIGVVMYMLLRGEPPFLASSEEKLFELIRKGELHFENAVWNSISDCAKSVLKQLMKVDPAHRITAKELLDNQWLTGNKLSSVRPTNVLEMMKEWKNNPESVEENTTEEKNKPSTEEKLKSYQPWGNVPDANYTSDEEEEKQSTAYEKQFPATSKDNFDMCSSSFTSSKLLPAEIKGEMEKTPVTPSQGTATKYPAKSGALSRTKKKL
T33 sequence (Q9HBH9 whole entry): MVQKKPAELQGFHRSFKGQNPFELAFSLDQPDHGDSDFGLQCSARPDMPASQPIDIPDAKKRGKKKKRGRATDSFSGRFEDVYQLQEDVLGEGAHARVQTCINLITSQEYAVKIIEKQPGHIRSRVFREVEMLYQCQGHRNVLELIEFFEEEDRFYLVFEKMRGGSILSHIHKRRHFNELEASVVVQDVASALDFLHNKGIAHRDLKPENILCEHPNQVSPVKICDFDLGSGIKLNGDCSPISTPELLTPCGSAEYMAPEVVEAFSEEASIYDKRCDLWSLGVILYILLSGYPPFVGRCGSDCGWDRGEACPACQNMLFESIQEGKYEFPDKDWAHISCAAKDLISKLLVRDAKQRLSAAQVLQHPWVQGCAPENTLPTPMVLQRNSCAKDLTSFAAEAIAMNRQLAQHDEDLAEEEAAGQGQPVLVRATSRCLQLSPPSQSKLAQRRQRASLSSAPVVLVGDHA
T19 sequence (P05771 whole entry): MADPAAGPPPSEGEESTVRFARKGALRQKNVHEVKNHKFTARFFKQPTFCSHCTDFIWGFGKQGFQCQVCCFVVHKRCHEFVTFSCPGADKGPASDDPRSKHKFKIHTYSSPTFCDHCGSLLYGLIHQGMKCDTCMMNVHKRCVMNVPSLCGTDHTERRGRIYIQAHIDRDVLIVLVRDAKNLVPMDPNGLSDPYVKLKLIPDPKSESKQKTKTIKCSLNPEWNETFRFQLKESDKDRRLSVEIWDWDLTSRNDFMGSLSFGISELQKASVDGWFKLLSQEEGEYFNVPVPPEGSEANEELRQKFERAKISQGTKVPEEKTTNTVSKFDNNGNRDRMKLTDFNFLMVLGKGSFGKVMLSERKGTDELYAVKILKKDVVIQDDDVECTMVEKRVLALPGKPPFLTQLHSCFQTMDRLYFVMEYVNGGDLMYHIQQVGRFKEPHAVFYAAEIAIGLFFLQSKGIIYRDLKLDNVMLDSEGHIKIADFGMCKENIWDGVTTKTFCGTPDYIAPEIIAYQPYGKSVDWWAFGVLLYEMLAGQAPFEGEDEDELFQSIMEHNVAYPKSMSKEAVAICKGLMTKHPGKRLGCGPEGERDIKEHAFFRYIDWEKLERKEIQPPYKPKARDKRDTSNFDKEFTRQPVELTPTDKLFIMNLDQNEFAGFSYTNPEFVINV
T22 sequence (Q9BUB5 whole entry): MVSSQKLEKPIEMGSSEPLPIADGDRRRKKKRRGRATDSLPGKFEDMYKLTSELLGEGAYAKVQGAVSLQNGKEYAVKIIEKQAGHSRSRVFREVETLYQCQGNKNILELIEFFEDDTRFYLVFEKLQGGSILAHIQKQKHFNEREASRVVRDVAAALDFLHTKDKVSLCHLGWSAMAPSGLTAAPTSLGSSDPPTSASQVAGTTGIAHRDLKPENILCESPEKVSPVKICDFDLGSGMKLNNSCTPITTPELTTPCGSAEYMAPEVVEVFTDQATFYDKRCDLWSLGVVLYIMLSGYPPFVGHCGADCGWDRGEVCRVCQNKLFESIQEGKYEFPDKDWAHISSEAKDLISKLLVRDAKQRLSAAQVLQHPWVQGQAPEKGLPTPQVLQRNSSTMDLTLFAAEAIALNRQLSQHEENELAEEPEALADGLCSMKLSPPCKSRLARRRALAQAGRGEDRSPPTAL
T15 sequence (P31749 whole entry): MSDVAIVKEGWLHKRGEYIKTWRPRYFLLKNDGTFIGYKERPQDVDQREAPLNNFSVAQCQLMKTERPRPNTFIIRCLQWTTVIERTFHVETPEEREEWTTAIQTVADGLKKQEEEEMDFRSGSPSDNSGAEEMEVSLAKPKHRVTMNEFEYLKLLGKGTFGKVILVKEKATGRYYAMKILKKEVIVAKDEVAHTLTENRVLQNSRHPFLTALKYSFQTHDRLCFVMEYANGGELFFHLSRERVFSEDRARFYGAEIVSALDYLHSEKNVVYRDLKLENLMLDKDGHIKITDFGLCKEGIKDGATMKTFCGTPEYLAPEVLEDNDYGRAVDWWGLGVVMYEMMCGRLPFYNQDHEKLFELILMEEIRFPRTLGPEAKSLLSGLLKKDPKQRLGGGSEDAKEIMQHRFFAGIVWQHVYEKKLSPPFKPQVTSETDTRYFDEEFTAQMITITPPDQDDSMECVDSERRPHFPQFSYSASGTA
T6 sequence (P06493 whole entry): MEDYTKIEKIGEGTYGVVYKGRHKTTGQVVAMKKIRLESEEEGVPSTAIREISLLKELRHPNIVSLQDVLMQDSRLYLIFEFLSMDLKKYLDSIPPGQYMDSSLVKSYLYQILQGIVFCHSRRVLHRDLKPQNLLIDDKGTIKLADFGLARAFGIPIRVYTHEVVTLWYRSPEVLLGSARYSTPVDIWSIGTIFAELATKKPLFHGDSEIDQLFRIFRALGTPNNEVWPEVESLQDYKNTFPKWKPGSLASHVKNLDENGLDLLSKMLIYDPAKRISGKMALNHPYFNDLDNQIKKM
T6 sequence (P24864 whole entry partner): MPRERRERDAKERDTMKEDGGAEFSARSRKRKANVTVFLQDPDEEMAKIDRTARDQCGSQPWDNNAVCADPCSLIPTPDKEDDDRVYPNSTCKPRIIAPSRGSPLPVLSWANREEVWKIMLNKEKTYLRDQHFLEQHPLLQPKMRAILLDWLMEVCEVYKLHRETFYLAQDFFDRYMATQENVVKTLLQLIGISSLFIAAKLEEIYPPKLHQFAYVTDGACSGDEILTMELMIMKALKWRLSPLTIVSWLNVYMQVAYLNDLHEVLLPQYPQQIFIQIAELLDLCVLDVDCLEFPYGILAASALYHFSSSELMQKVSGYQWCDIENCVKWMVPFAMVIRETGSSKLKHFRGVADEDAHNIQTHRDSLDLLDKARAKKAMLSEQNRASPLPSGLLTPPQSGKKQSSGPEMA
T18 sequence (P42684 whole entry): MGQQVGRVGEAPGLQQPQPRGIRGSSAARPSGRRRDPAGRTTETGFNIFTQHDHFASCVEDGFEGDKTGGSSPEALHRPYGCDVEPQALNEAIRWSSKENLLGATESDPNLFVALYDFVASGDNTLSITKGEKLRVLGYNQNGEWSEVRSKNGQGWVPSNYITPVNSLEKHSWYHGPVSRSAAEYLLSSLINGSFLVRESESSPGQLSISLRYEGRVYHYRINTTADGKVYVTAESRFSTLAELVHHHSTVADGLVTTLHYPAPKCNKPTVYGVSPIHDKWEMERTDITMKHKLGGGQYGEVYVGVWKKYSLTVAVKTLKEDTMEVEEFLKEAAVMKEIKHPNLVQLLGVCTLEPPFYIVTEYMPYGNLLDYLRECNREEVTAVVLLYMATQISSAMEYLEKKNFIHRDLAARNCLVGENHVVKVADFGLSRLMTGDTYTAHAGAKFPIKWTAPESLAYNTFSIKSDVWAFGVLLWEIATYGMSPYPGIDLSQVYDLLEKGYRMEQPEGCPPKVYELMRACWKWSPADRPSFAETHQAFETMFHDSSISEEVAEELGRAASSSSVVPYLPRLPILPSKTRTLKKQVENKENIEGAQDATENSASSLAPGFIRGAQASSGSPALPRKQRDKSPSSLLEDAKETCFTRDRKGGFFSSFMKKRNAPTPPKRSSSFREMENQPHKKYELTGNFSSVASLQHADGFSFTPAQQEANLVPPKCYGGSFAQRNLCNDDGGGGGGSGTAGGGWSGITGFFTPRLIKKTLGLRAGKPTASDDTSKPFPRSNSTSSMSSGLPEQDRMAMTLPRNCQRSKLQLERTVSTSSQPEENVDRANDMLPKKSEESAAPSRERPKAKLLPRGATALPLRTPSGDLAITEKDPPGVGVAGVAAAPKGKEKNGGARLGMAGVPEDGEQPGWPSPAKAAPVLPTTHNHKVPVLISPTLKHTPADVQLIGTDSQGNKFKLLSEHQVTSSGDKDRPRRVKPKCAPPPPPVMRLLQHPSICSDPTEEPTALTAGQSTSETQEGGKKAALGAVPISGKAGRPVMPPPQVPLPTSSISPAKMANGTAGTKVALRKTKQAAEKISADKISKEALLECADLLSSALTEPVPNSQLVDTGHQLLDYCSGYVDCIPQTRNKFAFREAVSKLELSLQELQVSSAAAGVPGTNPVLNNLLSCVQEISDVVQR
T28 sequence (Q13188 whole entry): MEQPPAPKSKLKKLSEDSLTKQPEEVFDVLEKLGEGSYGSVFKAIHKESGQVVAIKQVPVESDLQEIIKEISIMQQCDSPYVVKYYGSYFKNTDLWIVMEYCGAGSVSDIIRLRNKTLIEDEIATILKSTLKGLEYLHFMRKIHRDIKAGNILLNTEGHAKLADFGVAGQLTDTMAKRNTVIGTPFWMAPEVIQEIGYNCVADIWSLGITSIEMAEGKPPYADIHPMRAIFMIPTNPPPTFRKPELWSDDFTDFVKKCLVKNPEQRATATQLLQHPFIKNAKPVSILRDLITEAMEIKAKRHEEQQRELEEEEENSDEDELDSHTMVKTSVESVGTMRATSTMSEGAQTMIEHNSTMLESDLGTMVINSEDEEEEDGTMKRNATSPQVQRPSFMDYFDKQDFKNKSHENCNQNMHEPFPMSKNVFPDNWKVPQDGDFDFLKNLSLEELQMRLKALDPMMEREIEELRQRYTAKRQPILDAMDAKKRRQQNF

`CC(=O)Nc1nc2ccc(-c3cnc(C)c(NC(=O)OC4CCCCC4)c3)cc2s1` [PK68, cyclohexyl (5-(2-acetamidobenzo[d]thiazol-6-yl)-2-methylpyridin-3-yl)carbamate] gave an Activity% (FRK/PTK5; 1 μM) of 97.78%, an activity at 1 µM (FRK/PTK5) of 101% and an Activity% (CDK5/p35; 1 μM) of 100.63%. For the same molecule, the activity at 1 µM (CDK5/p35) was 102%, the Activity% (GRK1; 1 μM) was 99.42% and the activity at 1 µM (GRK1) was 100%. The Activity% (STK25/YSK1; 1 μM) was 104.63%, the activity at 1 µM (STK25/YSK1) was 110% and the Activity% (TTBK2; 1 μM) was 98.08%. The activity at 1 µM (TTBK2) was 98.4%, the Activity% (CDK1/cyclin E; 1 μM) was 101.92% and the activity at 1 µM (CDK1/cyclin E) was 102%. The Activity% (CDK2/cyclin O; 1 μM) was 98.77%, the activity at 1 µM (CDK2/cyclin O) was 99.8% and the Activity% (PAK6; 1 μM) was 92.62%. It also gave an activity at 1 µM (PAK6) of 93.6%, an Activity% (LYN B; 1 μM) of 97.70% and an activity at 1 µM (LYN B) of 98%. The Activity% (PKA; 1 μM) was 105.35%, the activity at 1 µM (PKA) was 105% and the Activity% (PBK/TOPK; 1 μM) was 97.84%. It also gave an activity at 1 µM (PBK/TOPK) of 98.4%, an Activity% (PKCepsilon; 1 μM) of 98.93% and an activity at 1 µM (PKCepsilon) of 99.5%. It also gave an Activity% (LATS1; 1 μM) of 101.83%, an activity at 1 µM (LATS1) of 103% and an Activity% (ROCK1; 1 μM) of 99.31%. It also gave an activity at 1 µM (ROCK1) of 101%, an Activity% (AKT1; 1 μM) of 99.12% and an activity at 1 µM (AKT1) of 99.2%. For the same molecule, the Activity% (SIK1; 1 μM) was 97.74%, the activity at 1 µM (SIK1) was 98.4% and the Activity% (SLK/STK2; 1 μM) was 91.29%. The activity at 1 µM (SLK/STK2) was 91.9%, the Activity% (ABL2/ARG; 1 μM) was 91.15% and the activity at 1 µM (ABL2/ARG) was 91.9%. For the same molecule, the Activity% (PKCb1; 1 μM) was 84.55%, the activity at 1 µM (PKCb1) was 84.8% and the Activity% (EPHA6; 1 μM) was 97.58%. For the same molecule, the activity at 1 µM (EPHA6) was 98.1%, the Activity% (MLCK2/MYLK2; 1 μM) was 50.92% and the activity at 1 µM (MLCK2/MYLK2) was 51.3%. The Activity% (MNK1; 1 μM) was 99.13%, the activity at 1 µM (MNK1) was 100% and the Activity% (ERK5/MAPK7; 1 μM) was 98.25%. It also gave an activity at 1 µM (ERK5/MAPK7) of 99.3%, an Activity% (TYK2; 1 μM) of 100.62% and an activity at 1 µM (TYK2) of 106%. It also gave an Activity% (c-Kit; 1 μM) of 75.47%, an activity at 1 µM (c-Kit) of 77.5% and an Activity% (IRAK1; 1 μM) of 90.54%. It also gave an activity at 1 µM (IRAK1) of 92.5%, an Activity% (JNK1; 1 μM) of 97.06% and an activity at 1 µM (JNK1) of 98.7%. For the same molecule, the Activity% (MST2/STK3; 1 μM) was 109.16%, the activity at 1 µM (MST2/STK3) was 109% and the Activity% (STK33; 1 μM) was 91.58%. For the same molecule, the activity at 1 µM (STK33) was 91.6%, the Activity% (CLK3; 1 μM) was 99.85% and the activity at 1 µM (CLK3) was 101%. The Activity% (ARK5/NUAK1; 1 μM) was 98.37%, the activity at 1 µM (ARK5/NUAK1) was 99.4% and the Activity% (EPHA4; 1 μM) was 92.78%. For the same molecule, the activity at 1 µM (EPHA4) was 92.8%, the Activity% (MNK2; 1 μM) was 88.77% and the activity at 1 µM (MNK2) was 90.5%.
